The target of experiment [1] is T1, Cocaine esterase (Homo sapiens, UniProt O00748).
T1 sequence (O00748 whole entry): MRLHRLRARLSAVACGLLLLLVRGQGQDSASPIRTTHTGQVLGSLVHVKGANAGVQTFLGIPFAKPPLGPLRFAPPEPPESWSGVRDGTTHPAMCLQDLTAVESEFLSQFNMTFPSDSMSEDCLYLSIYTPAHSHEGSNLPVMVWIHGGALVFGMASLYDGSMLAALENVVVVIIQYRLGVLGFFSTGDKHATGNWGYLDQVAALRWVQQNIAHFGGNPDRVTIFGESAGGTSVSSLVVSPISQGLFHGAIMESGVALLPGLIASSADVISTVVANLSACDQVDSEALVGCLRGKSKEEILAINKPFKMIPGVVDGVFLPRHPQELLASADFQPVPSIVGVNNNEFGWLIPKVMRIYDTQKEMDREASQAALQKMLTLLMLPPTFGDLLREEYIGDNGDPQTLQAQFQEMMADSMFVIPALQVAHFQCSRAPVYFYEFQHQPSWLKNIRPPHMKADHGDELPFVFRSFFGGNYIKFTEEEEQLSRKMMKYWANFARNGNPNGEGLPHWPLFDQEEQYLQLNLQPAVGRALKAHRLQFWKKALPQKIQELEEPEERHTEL
Put plainly: Inhibition of CE2 in human liver microsomes using fluorescein diacetate as substrate preincubated for 10 mins followed by substrate addition measured after 30 mins by LC-UV analysis. (In general: Liver microsomes are a subcellular fraction often used to study metabolism.)

The target of experiment [2] is T2, Liver carboxylesterase 1 (Homo sapiens, UniProt P23141).
T2 sequence (P23141 whole entry): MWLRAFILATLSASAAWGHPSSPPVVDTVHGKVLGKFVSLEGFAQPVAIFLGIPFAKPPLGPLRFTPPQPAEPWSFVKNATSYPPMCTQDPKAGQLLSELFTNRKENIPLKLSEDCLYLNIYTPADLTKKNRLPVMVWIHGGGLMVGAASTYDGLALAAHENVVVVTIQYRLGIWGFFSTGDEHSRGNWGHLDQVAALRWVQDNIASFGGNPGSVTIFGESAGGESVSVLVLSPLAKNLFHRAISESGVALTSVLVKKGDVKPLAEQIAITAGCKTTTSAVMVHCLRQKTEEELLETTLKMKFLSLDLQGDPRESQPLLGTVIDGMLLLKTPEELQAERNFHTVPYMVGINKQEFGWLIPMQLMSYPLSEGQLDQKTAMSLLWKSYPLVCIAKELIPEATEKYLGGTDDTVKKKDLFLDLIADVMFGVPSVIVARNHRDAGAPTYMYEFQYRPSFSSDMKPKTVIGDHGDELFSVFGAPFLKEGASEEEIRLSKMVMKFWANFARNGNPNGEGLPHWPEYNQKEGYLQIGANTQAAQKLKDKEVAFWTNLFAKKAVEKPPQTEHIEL
Put plainly: Inhibition of CE1 in human liver microsomes using 2-(2-Benzoyl-3-methoxyphenyl) benzothiazole as substrate preincubated for 10 mins followed by substrate addition measured after 30 mins by LC-UV analysis.

Experiment [3] is filed under the species Homo sapiens. As to the kind of experiment: Selectivity ratio of IC50 for CE1 in human liver microsomes to IC50 for CE2 in human liver microsomes.

With `CC1(C)C(=O)CC[C@]2(C)[C@H]3C(=O)C=C4[C@@H]5C[C@@](C)(C(=O)O)CC[C@]5(C)CC[C@@]4(C)[C@]3(C)CC[C@@H]12`, the IC50 in experiment [1] and in experiment [2] was over 100 µM each time.

On to `CC(=O)O[C@H]1CC[C@]2(C)[C@H]3C(=O)C=C4[C@@H]5C[C@@](C)(C#N)CC[C@]5(C)CC[C@@]4(C)[C@]3(C)CC[C@H]2C1(C)C`, for which the IC50 in experiment [1] and in experiment [2] was over 100 µM throughout.

Take `CC1(C)[C@@H](O)CC[C@]2(C)[C@H]3CC=C4[C@@H]5C[C@@](C)(C(=O)O)CC[C@]5(C)CC[C@@]4(C)[C@]3(C)CC[C@@H]12`: the half-maximal inhibitory concentration (IC50) (commonly the concentration at which inhibition is half-maximal) in experiment [2] came to 10.5 µM.

Consider `CCOC(=O)[C@@]1(C)CC[C@]2(C)CC[C@]3(C)C(=CC(=O)[C@@H]4[C@@]5(C)CC[C@H](O)C(C)(C)[C@@H]5CC[C@]43C)[C@@H]2C1`, for which the IC50 in experiment [1] amounted to 5.7 µM; in experiment [2], 26.3 µM. Moreover, in experiment [3], the Ratio IC50 was 4.6.

With `CCOC(=O)[C@@]1(C)CC[C@]2(C)CC[C@]3(C)C(=CC[C@@H]4[C@@]5(C)CC[C@H](OC(=O)CCC(=O)O)C(C)(C)[C@@H]5CC[C@]43C)[C@@H]2C1`, the IC50 in experiment [2] was determined as 20.4 µM.

Take `CN(C)CCOC(=O)[C@@]1(C)CC[C@]2(C)CC[C@]3(C)C(=CC(=O)[C@@H]4[C@@]5(C)CC[C@H](O)C(C)(C)[C@@H]5CC[C@]43C)[C@@H]2C1`: the values for the IC50 in experiment [1] and in experiment [2] were 3.95 µM and 9.13 µM, respectively. Moreover, the Ratio IC50 in experiment [3] was 2.3.

In the case of `CC(=O)O[C@H]1CC[C@]2(C)[C@H]3C(=O)C=C4[C@@H]5C[C@@](C)(C(=O)O)CC[C@]5(C)CC[C@@]4(C)[C@]3(C)CC[C@H]2C1(C)C` [ACETOXOLONE], the half-maximal inhibitory concentration (IC50) in experiment [2] worked out at 49.9 µM.

For `COC(=O)[C@@]1(C)CC[C@]2(C)CC[C@]3(C)C(=CC(=O)[C@@H]4[C@@]5(C)CC[C@H](O)C(C)(C)[C@@H]5CC[C@]43C)[C@@H]2C1`, the IC50 in experiment [1] is 5.61 µM; in experiment [2] it was 22.4 µM. Besides, the Ratio IC50 in experiment [3] amounted to 4.

In experiment [2], `CC1(C)C(=O)CC[C@]2(C)[C@H]3CC=C4[C@@H]5C[C@@](C)(C(=O)O)CC[C@]5(C)CC[C@@]4(C)[C@]3(C)CC[C@@H]12` displayed an IC50 of 23.6 µM.

With `CCOC(=O)[C@@]1(C)CC[C@]2(C)CC[C@]3(C)C(=CC[C@@H]4[C@@]5(C)CC[C@H](O)C(C)(C)[C@@H]5CC[C@]43C)[C@@H]2C1`, the concentration for half-maximal inhibition (IC50) in experiment [1] came to 3.99 µM; in experiment [2], 25.1 µM. The Ratio IC50 in experiment [3] came to 6.3.

In experiment [2], `O=[N+]([O-])c1ccc(OP(=O)(O)Oc2ccc([N+](=O)[O-])cc2)cc1` yielded an IC50 of 0.14 µM.

For `CC1(C)[C@@H](O)CC[C@]2(C)[C@H]3C(=O)C=C4[C@@H]5C[C@@](C)(C(N)=O)CC[C@]5(C)CC[C@@]4(C)[C@]3(C)CC[C@@H]12`, the IC50 came to 14.2 µM in experiment [1] and 6.99 µM in experiment [2]. Further, the Ratio IC50 in experiment [3] is 0.5.

`CCOC(=O)[C@@]1(C)CC[C@]2(C)CC[C@]3(C)C(=CC(=O)[C@@H]4[C@@]5(C)CC[C@H](OC(=O)CCC(=O)O)C(C)(C)[C@@H]5CC[C@]43C)[C@@H]2C1`: the IC50 was 0.66 µM in experiment [1] and over 100 µM in experiment [2]. In addition, the Ratio IC50 in experiment [3] is 152.

Turning to `COc1cc2c(cc1CC=C(C)C)C(=O)C[C@@H](c1ccc(O)cc1)O2` [BAVACHININ A], the half-inhibitory concentration (IC50) turned out to be 4.31 µM in experiment [1] and 3.47 µM in experiment [2]. Also, in experiment [3], the Ratio IC50 turned out to be 0.8.

Take `CC(=O)O[C@H]1CC[C@]2(C)[C@H]3C(=O)C=C4[C@@H]5C[C@@](C)(C(=O)OCCN(C)C)CC[C@]5(C)CC[C@@]4(C)[C@]3(C)CC[C@H]2C1(C)C`: the 50% inhibitory concentration (IC50) in experiment [1] was 3.42 µM; in experiment [2], 12.3 µM. In addition, the Ratio IC50 in experiment [3] was found to be 3.6.

The compound `CC1(C)[C@@H](O)CC[C@]2(C)[C@H]3C(=O)C=C4[C@@H]5C[C@@](C)(C(=O)O)CC[C@]5(C)CC[C@@]4(C)[C@]3(C)CC[C@@H]12` [ENOXOLONE] registered a 50% inhibitory concentration (IC50) in experiment [2] of 21 µM.

As for `CC(=O)O[C@H]1CC[C@]2(C)[C@H]3C(=O)C=C4[C@@H]5C[C@@](C)(C(N)=O)CC[C@]5(C)CC[C@@]4(C)[C@]3(C)CC[C@H]2C1(C)C`, the results for the IC50 in experiment [1] and in experiment [2] were 7.36 µM and 11 µM, respectively. Further, the Ratio IC50 in experiment [3] worked out at 1.5.

Values taken from ChEMBL document CHEMBL3774325, “Design, synthesis, and structure-activity relationship study of glycyrrhetinic acid derivatives as potent and selective inhibitors against human carboxylesterase 2” (Eur J Med Chem, 2016).
